{"source": "patent US10407445B2", "about": "“Hepatitis C virus inhibitors” (ENANTA PHARMACEUTICALS, INC., priority 2013, dated 2019)", "system": "HCV genotype 1b replicon Huh7-lunet cells", "assay": "Resistance barrier analysis in HCV genotype 1b replicon cells (crystal violet staining)", "assay_type": "cell-based, Hepatitis C virus", "details": "2×EC50, 3 weeks in the presence of G418", "protocol": "Stable HCV genotype 1b replicon Huh7-lunet cells were plated in 100 mm cell culture dishes (1.5×10^5 and 3×10^5 cells/dish for DMSO control and compound treated cells, respectively) and incubated for 24 hr (37° C., 5% CO2) prior to compound addition. Compounds (solubilized in DMSO) were prepared in complete media (0.5% DMSO final) and added to cells. Cells were maintained in the presence of compound (or DMSO) and G418 (500 μg/mL) for 3 weeks with media replacement two times per week. Cells were then fixed (4% paraformaldehyde, 30 min at room temperature) and stained (0.5% crystal violet/25% methanol, 20 min room temperature) to allow visualization of surviving cells. Plates were then washed with water to remove excess stain and left to air dry overnight prior to imaging (BioRad Gel Doc XR+Molecular Imager).\nFIG. 1 illustrates comparison of a compound of the invention to daclatasvir in a test that provides a qualitative indication of the occurrence of resistance. […] The control plate, with DMSO alone (no compound 16 or daclatasvir), is almost completely opaque."}
{"smiles": "COC(=O)N[C@H](C(=O)N1C[C@]2(CCCOC2)C[C@H]1c1ncc(-c2ccc(-c3ccc4c(ccc5nc([C@@H]6C[C@@H]7CCC[C@@H]7N6C(=O)[C@@H](NC(=O)OC)C(C)C)[nH]c54)c3)cc2)[nH]1)C(C)C", "note": "[Compound 16]", "values": [{"measurement": "surviving replicon cells (crystal violet staining)", "result": "almost entirely prevented replicon cell survival"}]}
